Target: T1, GPX4 (Homo sapiens, UniProt P36969)
T1 construct: made in house; host or cells: E. coli
T1 sequence (P36969 1-170 isoform P36969-2): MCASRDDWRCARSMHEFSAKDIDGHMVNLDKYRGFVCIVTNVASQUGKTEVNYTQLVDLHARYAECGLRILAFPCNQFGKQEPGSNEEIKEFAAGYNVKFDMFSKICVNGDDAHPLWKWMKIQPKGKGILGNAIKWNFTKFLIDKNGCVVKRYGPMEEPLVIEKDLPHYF
Assay: GR-coupled GPX4 activity assay (NADPH fluorescence, CHP substrate)
Format: biochemical
Details: Fig. 9 pan-selenoprotein inhibitors
Protocol: The compound plates were prepared as described previously. Purified recombinant human GPX1, GPX2, GPX4, GR, and TXNRD1 were produced and purified as previously reported [[48], [49], [50]]. As production of GPX2 was not optimized at the onset of screening, only GPX1 and GPX4 underwent library screening, and GPX2 was used as a follow-up.
Follow-up and orthogonal assays were run in quadruplicate unless otherwise stated. Assay schemes are illustrated in Fig. 1.
To measure GPX activity, assays were performed in 1536-well format in black medium-binding solid-bottom plates (Greiner). These assay conditions were optimized for high-throughput screening from an assay first described by Paglia and Valentine. GPX activity is measured indirectly by coupling the reaction with GR whereby GPX reduces hydroperoxide by oxidizing two GSH to GSSG and the oxidized glutathione is recycled to its reduced state by GR and NADPH (Fig. 1B). The rate of consumption of NADPH is directly proportional to the activity of GPX and can be measured by the decrease in fluorescence at 340 nm/450 nm.
First, 3 μL of enzyme in TES assay buffer (50 mM Tris-HCl, 2 mM EDTA (pH 7.5), 150 mM NaCl with enzyme [10 nM GPX1, 200 nM GPX4 ] and BSA [0.01%]) was added to columns 3–48 of 1536-well plates using a BioRAPTR Flying Reagent Dispenser (Let's Go Robotics (LGR), Carlsbad, CA). A no-enzyme control (0.01% BSA in TES assay buffer) was added to columns 1–2. Compounds (25 nL, library and DMSO controls) were added to each well with a pin tool (Kalypsys), and the plates were incubated for 30 min at room temperature before 1 μL of master mix (100 nM GR, 1 mM GSH, 0.5 mM NADPH in TES buffer) was added. 1 μL of cumene hydroperoxide (CHP) ([0.5 mM] in 50% EtOH) was then added within 5 min to initiate the reaction. Fluorescence at 340/450 nm was measured using a ViewLux multimodal detector (PerkinElmer, Waltham, MA) at initial t = 0 and endpoint t = 15 min (GPX1) or t = 20 min (GPX4).
Follow-up confirmation assays were also run in 96-well format using medium binding clear 96-well SpectraPlate microplates (PerkinElmer) and NADPH absorbance at 340 nm was measured every 30 s for 30 min using an Infinite® M Nano (Tecan).
Percent activity was determined by first calculating delta RFU (decrease in fluorescence between t = 0 and t = 20/30 min in primary GPX, GR counter-screen, and TXNRD1 assays, or increase in fluorescence between t = 0 and t = 20 min in the Monobromobimane GPX endpoint assay), and normalizing enzyme activity using median delta RFU values for DMSO-treated enzyme control, and DMSO-treated no-enzyme controls.
Compound inhibitory activity in the qHTS assays was determined by plotting dose-response data for each sample and fitting with a four-parameter logistic fit to assess IC50 values, efficacy (maximal response), and AUC (area under the curve), as previously described. Hits were classified by the quality of the concentration-response curves (CRC). Curve classes −1.1 and −1.2 being the highest-confidence actives with complete CRCs and classes −2.1 and −2.2 being lower-confidence actives with incomplete CRCs.

inhibition of GPX4: inhibited all tested selenoproteins
inhibition of GPX4 (listed as 2,3-dimercaptopropanesulfonic acid): inhibited all selenoproteins
Structure (SMILES): O=S(=O)(O)CC(S)CS (centres unmarked) [2,3-dimercaptopropanesulfonate]

Source: article PMC10220285, “Development of an assay pipeline for the discovery of novel small molecule inhibitors of human glutathione peroxidases GPX1 and GPX4” (Redox Biology, 2023)
